Measured values taken from PubChem BioAssay AID1963853 (Molecular Pharmacology Branch, DTP, NCI, 2024).

Tested on: 266295-075-R-J1-PDC spheroid viability
Assay: Anticancer human tumor 266295-075-R-J1-PDC patient-derived head and neck squamous carcinoma cell line growth inhibition [POLQ]
Details: spheroids with HUVEC and MSC; for IC50: curve of first compound; for viability, T/C: stronger effect = lower value
In short: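 Growth inhibition in 3D: complex spheroids (tumor PDC, HUVEC, MSC) treated with POLQ inhibitor combinations; where Cmax unknown, highest tested concentration 10 microM, except SN-38 at 1 microM.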
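Further: spheroids exposed to compounds for seven days before readout.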

For `COc1cccc(OCCCN)c1-c1cc(Nc2cnc(C#N)cn2)n[nH]1` + Nc1ccc(C#CCN(C(=O)Cc2ncc(C(F)(F)F)cc2C(F)(F)F)c2ccc(F)cc2)nn1, the IC50 (second compound 0.0316 µM) was greater than 1000 nM, the IC50 (second compound 0.1 µM) was greater than 1000 nM and the IC50 (second compound 0.316 µM) was greater than 1000 nM. For the same compound, the IC50 (second compound 1 µM) was greater than 1000 nM, the IC50 (second compound 3.16 µM) was greater than 1000 nM and the IC50 (second compound 10 µM) was greater than 1000 nM. It also gave a viability, T/C (second compound 0.0316 µM, first compound 0.00316 µM) of 89.6%, a viability, T/C (second compound 0.0316 µM, first compound 0.01 µM) of 110% and a viability, T/C (second compound 0.0316 µM, first compound 0.0316 µM) of 81.2%. It also gave a viability, T/C (second compound 0.0316 µM, first compound 0.1 µM) of 77.5%, a viability, T/C (second compound 0.0316 µM, first compound 0.316 µM) of 64.5% and a viability, T/C (second compound 0.0316 µM, first compound 1 µM) of 64.4%. It also gave a viability, T/C (second compound 0.1 µM, first compound 0.00316 µM) of 91.6%, a viability, T/C (second compound 0.1 µM, first compound 0.01 µM) of 106% and a viability, T/C (second compound 0.1 µM, first compound 0.0316 µM) of 84.1%. It also gave a viability, T/C (second compound 0.1 µM, first compound 0.1 µM) of 69.3%, a viability, T/C (second compound 0.1 µM, first compound 0.316 µM) of 72% and a viability, T/C (second compound 0.1 µM, first compound 1 µM) of 73.5%. For the same compound, the viability, T/C (second compound 0.316 µM, first compound 0.00316 µM) was 106%, the viability, T/C (second compound 0.316 µM, first compound 0.01 µM) was 91.9% and the viability, T/C (second compound 0.316 µM, first compound 0.0316 µM) was 73.8%. It also gave a viability, T/C (second compound 0.316 µM, first compound 0.1 µM) of 76.1%, a viability, T/C (second compound 0.316 µM, first compound 0.316 µM) of 60.4% and a viability, T/C (second compound 0.316 µM, first compound 1 µM) of 71.2%. It also gave a viability, T/C (second compound 1 µM, first compound 0.00316 µM) of 99.2%, a viability, T/C (second compound 1 µM, first compound 0.01 µM) of 95.9% and a viability, T/C (second compound 1 µM, first compound 0.0316 µM) of 74.5%. The viability, T/C (second compound 1 µM, first compound 0.1 µM) was 66.5%, the viability, T/C (second compound 1 µM, first compound 0.316 µM) was 61.9% and the viability, T/C (second compound 1 µM, first compound 1 µM) was 60.8%. For the same compound, the viability, T/C (second compound 3.16 µM, first compound 0.00316 µM) was 120%, the viability, T/C (second compound 3.16 µM, first compound 0.01 µM) was 101% and the viability, T/C (second compound 3.16 µM, first compound 0.0316 µM) was 73.2%. The viability, T/C (second compound 3.16 µM, first compound 0.1 µM) was 72.8%, the viability, T/C (second compound 3.16 µM, first compound 0.316 µM) was 70.2% and the viability, T/C (second compound 3.16 µM, first compound 1 µM) was 61%. For the same compound, the viability, T/C (second compound 10 µM, first compound 0.00316 µM) was 94.6%, the viability, T/C (second compound 10 µM, first compound 0.01 µM) was 95% and the viability, T/C (second compound 10 µM, first compound 0.0316 µM) was 87.8%. It also gave a viability, T/C (second compound 10 µM, first compound 0.1 µM) of 67.3%, a viability, T/C (second compound 10 µM, first compound 0.316 µM) of 62.1% and a viability, T/C (second compound 10 µM, first compound 1 µM) of 68.9%.
